# In patent publication US12458605B2, “Lipid nanoparticle” (National University Corporation Hokkaido University, priority 2020, dated 2025):
# Where “and” joins values, the source holds several entries; their conditions need not be identical. Equal entries are not always repeated.
# Legend:
# spleen = test: In vivo Fluc activity of FlucmRNA-loaded LNP by in vivo imaging, spleen; conditions: Balb/c mice, 6 hours; for Fluc activity in the spleen, compared with CL15F6 / Fluc activity in the spleen, compared with CL4F6: 0.1 mg mRNA/kg; for Fluc activity in the spleen, compared with CL15F6: versus LNP comprising CL15F6 (Table 7); for Fluc Activity in spleen: FlucmRNA-loaded LNP i.v. 0.1 mg mRNA/kg; for Fluc activity in the spleen, compared with CL4F6: versus LNP comprising CL4F6 (Tables 5 and 6)
# Procedure, shortened: (§1)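 Read-out is average radiance (p/s/cm2/sr, about 560 nm) from whole-animal imaging of liver and spleen 6 h post-dose, after tail-vein luciferin at 1.5 mg/mouse. Dosing was intravenous, 0.1 mg mRNA/kg, in 7-week-old female Balb/c mice.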
# [1] = siRNA/mRNA encapsulation rate by Ribogreen reagent (section IV); format: physicochemical; conditions: for % siRNA encapsulation: F7siRNA-loaded LNP, 50:10:38.5:1.5, N/P ratio 6; for % mRNA encapsulation: FlucmRNA-loaded LNP, 50:10:38.5:1.5
# Procedure, shortened: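 Encapsulation % was calculated as (total − surface nucleic acid)/total × 100, with both values measured by RiboGreen fluorescence at 485/528 nm. Total RNA was read on LNPs lysed with 1% Triton X-100 at 1.2 μg/mL, and surface RNA on intact LNPs at 8 μg/mL in TE buffer. Concentrations came from a 0-2.5 μg/mL Triton-containing calibration curve.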
# F7 = test: In vivo F7 knockdown, plasma F7 enzyme activity (BIOPHEN FVII), Balb/c mice; conditions: for knockdown activity, compared with MC3: F7siRNA-loaded LNP, versus LNP comprising MC3; for F7 enzyme activity (Ratio using MC3 as 1) / F7 enzyme activity (%): i.v. 0.025 mg siRNA/kg, plasma at 24 hours; for F7 enzyme activity (Ratio using MC3 as 1): relative plasma F7 activity of MC3 LNP as 1; for F7 enzyme activity (%): untreated mice as 100%
# Procedure, shortened: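 Plasma factor VII activity was read 24 h after a single intravenous 0.025 mg siRNA/kg dose of siRNA-loaded lipid nanoparticles in 5-week-old female Balb/c mice. Activity is relative to untreated animals (100%) and normalised to the MC3 nanoparticle benchmark (=1).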
# [2] = Storage stability of FlucmRNA-loaded LNP at −80, 5, 25 and 40° C.; format: physicochemical; conditions: for period for which quality remained good, −80° C.: maximum storage period 1 week; for period for which quality remained good, 5° C. / period for which quality remained good, 25° C. / period for which quality remained good, 40° C. (weeks) / period for which quality remained good, 40° C. (days): maximum storage period 5 weeks
# Procedure, shortened: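 Reported period is how long all three criteria hold: encapsulation rate at 80% or more, PDI of 0.2 or less, and mean particle size within +/−20 nm of day-of-preparation value. Particle size, PDI and nucleic acid encapsulation were tracked over time at storage temperatures of −80, 5, 25 and 40° C.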
# [3] = Average particle size (ζ-Average) and PDI by dynamic light scattering (Zetasizer Nano ZSP); format: physicochemical
# Procedure, shortened: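 Dynamic light scattering of the particles in PBS(−) gave both the polydispersity index and the ζ-Average mean size.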
# liver = test: In vivo Fluc activity of FlucmRNA-loaded LNP by in vivo imaging, liver; conditions: Balb/c mice, 6 hours; for Fluc activity in the liver, compared with CL15F6: versus LNP comprising CL15F6 (Table 7); for Fluc Activity in liver: FlucmRNA-loaded LNP i.v. 0.1 mg mRNA/kg
# Procedure, shortened: as §1
# [4] = F7siRNA-loaded LNP, 50:10:38.5:1.5, N/P ratio 6
# [5] = FlucmRNA-loaded LNP, 50:10:38.5:1.5
# [6] = FlucmRNA-loaded LNP, lipid:DSPC:cholesterol:DMG-PEG2K 50:10:38.5:1.5
SMILES,Fluc Activity in spleen (spleen),% siRNA encapsulation [1],% mRNA encapsulation [1] [%],"knockdown activity, compared with MC3 (F7)",F7 enzyme activity (Ratio using MC3 as 1) (F7),"period for which quality remained good, −80° C. [2] [week]","period for which quality remained good, 5° C. [2] [weeks]","period for which quality remained good, 25° C. [2] [weeks]","period for which quality remained good, 40° C. (weeks) [2]","PDI [3, 4]","ζ-Average (nm) [3, 4]","PDI [3, 5]","ζ-Average (nm) [3, 6] [nm]",Fluc Activity in liver (liver),"Fluc activity in the spleen, compared with CL4F6 (spleen)",F7 enzyme activity (%) (F7),also measured
CCCCCCCCCC(CCCCCCCCC)C(=O)OCCCCCCC(O)(CCCCCCOC(=O)C(CCCCCCCCC)CCCCCCCCC)CCCCOC(=O)C1CCN(C)CC1 [CL15F 11-9],7.55E+06 Avg Radiance [p/s/cm2/sr],101.1%,99.78,higher knockdown activity,0.50,1,5,5,5 weeks,0.029,104.9 nm,0.023,99.31,3.66E+07 Avg Radiance [p/s/cm2/sr],,,"Fluc activity in the spleen, compared with CL15F6 (spleen): higher Fluc activity; Fluc activity in the liver, compared with CL15F6 (liver; 0.1 mg mRNA/kg): higher Fluc activity"
CCCCCCCC(CCC)C(=O)OCCCCCCC(O)(CCCCCCOC(=O)C(CCC)CCCCCCC)CCCCN(CCC)CCC (centres unmarked) [CL4F 9-3],8.17E+06 Avg Radiance [p/s/cm2/sr],99.9%,99.6,,,1,5,5,,0.022,114.40 nm,0.030,102.80,2.96E+07 Avg Radiance [p/s/cm2/sr],higher Fluc activity,11.7,"period for which quality remained good, 40° C. (days) [2]: 0 day days"
CCCCCCCCCCC(CCCCCC)C(=O)OCCCCCCC(O)(CCCCCCOC(=O)C(CCCCCC)CCCCCCCCCC)CCCCN(CCC)CCC (centres unmarked) [CL4F 12-6],1.72E+06 Avg Radiance [p/s/cm2/sr],99.3% and 99.6%,99.7,higher knockdown activity,0.18,1,5,5,5 weeks,0.012 and 0.008,92.28 nm and 94.26 nm,0.017,82.84,5.86E+07 Avg Radiance [p/s/cm2/sr],,6,
CCCCCCC(CCCCC)C(=O)OCCCCCCC(O)(CCCCCCOC(=O)C(CCCCC)CCCCCC)CCCCN(CCC)CCC (centres unmarked) [CL4F 8-5],1.45E+07 Avg Radiance [p/s/cm2/sr],99.7%,99.1,higher knockdown activity,0.38,1,5,5,5 weeks,0.034,103.40 nm,0.043,94.65,4.80E+07 Avg Radiance [p/s/cm2/sr],higher Fluc activity,,
CCCCC(CC)C(=O)OCCCCCCC(O)(CCCCCCOC(=O)C(CC)CCCC)CCCCN(CCC)CCC (centres unmarked) [CL4F 6-2],1.24E+05 Avg Radiance [p/s/cm2/sr],56.9%,41.4,,,,,,,0.298,274.50 nm,0.069,218.20,1.34E+03 Avg Radiance [p/s/cm2/sr],,54.8,"quality at production (storage stability criteria) ([2]; criteria: PDI 0.2 or less, encapsulation 80% or more): Does not meet the criteria for “good” at production"
CCCCCCCCCCC(CCCCCCCCCC)C(=O)OCCCCCCC(O)(CCCCCCOC(=O)C(CCCCCCCCCC)CCCCCCCCCC)CCCCOC(=O)C1CCN(C)CC1 [CL15F 12-10],5.58E+06 Avg Radiance [p/s/cm2/sr],100.5%,99.78,higher knockdown activity,0.51,1,5,5,5 weeks,0.014,100.2 nm,0.030,97.59,4.33E+07 Avg Radiance [p/s/cm2/sr],,,"Fluc activity in the liver, compared with CL15F6 (liver; 0.1 mg mRNA/kg): higher Fluc activity"
CCCCCCCCC(CCCCCCCC)C(=O)OCCCCCCC(O)(CCCCCCOC(=O)C(CCCCCCCC)CCCCCCCC)CCCCN(CCC)CCC [CL4F 10-8],8.04E+05 Avg Radiance [p/s/cm2/sr],99.9%,99.8,,,1,5,5,5 weeks,0.007,91.44 nm,0.021,81.99,5.14E+07 Avg Radiance [p/s/cm2/sr],,8.1,
CCCCCCCCCCC(CCCC)C(=O)OCCCCCCC(O)(CCCCCCOC(=O)C(CCCC)CCCCCCCCCC)CCCCN(CCC)CCC (centres unmarked) [CL4F 12-4],3.19E+06 Avg Radiance [p/s/cm2/sr],100.1%,99.0,,,1,5,5,1 week weeks,0.011,94.55 nm,0.015,84.57,7.70E+07 Avg Radiance [p/s/cm2/sr],higher Fluc activity,5,
CCCCCCCCCC(CCCCCC)C(=O)OCCCCCCC(O)(CCCCCCOC(=O)C(CCCCCC)CCCCCCCCC)CCCCN(CCC)CCC (centres unmarked) [CL4F 11-6],2.54E+06 Avg Radiance [p/s/cm2/sr],99.9%,99.8,,,1,5,5,5 weeks,0.034,92.98 nm,0.020,84.50,1.38E+08 Avg Radiance [p/s/cm2/sr],,6,"Fluc activity in the liver, compared with CL4F6 (liver; 0.1 mg mRNA/kg, versus LNP comprising CL4F6 (Tables 5 and 6)): higher Fluc activity"
CCCCCCCCC(CCCC)C(=O)OCCCCCCC(O)(CCCCCCOC(=O)C(CCCC)CCCCCCCC)CCCCN(CCC)CCC (centres unmarked) [CL4F 10-4],6.70E+06 Avg Radiance [p/s/cm2/sr],100.1%,99.8,higher knockdown activity,,1,5,5,,0.021,95.37 nm,0.041,84.92,1.20E+08 Avg Radiance [p/s/cm2/sr],higher Fluc activity,1.7,"period for which quality remained good, 40° C. (days) [2]: 0 day days"
CCCCCC(CCCCC)C(=O)OCCCCCCC(O)(CCCCCCOC(=O)C(CCCCC)CCCCC)CCCCOC(=O)C1CCN(C)CC1 [CL15F 7-5],1.37E+07 Avg Radiance [p/s/cm2/sr],98.8%,97.6,,1.74,0,5,5,5 weeks,0.039,180.6 nm,0.007,196.00,2.15E+06 Avg Radiance [p/s/cm2/sr],,,"Fluc activity in the spleen, compared with CL15F6 (spleen): higher Fluc activity"
